Test results published in article PMC11945486, “TAS1R2/TAS1R3 Single-Nucleotide Polymorphisms Affect Sweet Taste Receptor Activation by Sweeteners: The SWEET Project” (Nutrients, 2025).
Like-named read-outs stand apart in the source and are kept apart here.

Key:
[1] = biological target: T1, human TAS1R2-C9S/TAS1R3-WT (Homo sapiens, UniProt Q7RTX0+Q8TE23); assay: Calcium mobilisation assay, TAS1R2 variant C9S with TAS1R3-WT; format: cell-based; conditions: for Max ΔF/F0: maximal signal amplitude
T1 construct: expressed in transfected cells; host or cells: HEK293T-Gα16gust44
T1 sequence (Q8TE23 20-839): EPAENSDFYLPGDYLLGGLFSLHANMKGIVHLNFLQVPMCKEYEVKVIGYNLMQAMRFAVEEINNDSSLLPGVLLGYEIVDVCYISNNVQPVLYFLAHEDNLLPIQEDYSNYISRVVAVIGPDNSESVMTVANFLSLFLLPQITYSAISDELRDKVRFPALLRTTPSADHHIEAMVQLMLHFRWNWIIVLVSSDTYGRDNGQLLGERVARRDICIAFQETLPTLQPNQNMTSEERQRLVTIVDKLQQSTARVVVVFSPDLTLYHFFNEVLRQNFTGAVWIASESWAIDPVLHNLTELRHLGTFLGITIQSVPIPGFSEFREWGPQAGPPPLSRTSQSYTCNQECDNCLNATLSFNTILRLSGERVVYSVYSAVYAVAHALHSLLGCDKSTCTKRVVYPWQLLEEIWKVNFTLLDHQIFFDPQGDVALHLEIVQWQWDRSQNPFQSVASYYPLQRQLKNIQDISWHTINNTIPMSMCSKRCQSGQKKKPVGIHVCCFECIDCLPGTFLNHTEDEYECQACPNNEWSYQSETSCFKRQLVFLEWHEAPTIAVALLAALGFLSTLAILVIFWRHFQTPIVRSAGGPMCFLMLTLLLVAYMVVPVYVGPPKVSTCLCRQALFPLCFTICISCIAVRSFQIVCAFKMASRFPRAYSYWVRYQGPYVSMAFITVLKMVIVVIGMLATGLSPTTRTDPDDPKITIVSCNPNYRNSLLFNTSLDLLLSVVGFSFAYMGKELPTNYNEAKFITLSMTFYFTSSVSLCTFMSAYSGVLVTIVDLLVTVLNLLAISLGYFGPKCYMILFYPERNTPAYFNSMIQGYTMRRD
T1 sequence (Q7RTX0 21-852): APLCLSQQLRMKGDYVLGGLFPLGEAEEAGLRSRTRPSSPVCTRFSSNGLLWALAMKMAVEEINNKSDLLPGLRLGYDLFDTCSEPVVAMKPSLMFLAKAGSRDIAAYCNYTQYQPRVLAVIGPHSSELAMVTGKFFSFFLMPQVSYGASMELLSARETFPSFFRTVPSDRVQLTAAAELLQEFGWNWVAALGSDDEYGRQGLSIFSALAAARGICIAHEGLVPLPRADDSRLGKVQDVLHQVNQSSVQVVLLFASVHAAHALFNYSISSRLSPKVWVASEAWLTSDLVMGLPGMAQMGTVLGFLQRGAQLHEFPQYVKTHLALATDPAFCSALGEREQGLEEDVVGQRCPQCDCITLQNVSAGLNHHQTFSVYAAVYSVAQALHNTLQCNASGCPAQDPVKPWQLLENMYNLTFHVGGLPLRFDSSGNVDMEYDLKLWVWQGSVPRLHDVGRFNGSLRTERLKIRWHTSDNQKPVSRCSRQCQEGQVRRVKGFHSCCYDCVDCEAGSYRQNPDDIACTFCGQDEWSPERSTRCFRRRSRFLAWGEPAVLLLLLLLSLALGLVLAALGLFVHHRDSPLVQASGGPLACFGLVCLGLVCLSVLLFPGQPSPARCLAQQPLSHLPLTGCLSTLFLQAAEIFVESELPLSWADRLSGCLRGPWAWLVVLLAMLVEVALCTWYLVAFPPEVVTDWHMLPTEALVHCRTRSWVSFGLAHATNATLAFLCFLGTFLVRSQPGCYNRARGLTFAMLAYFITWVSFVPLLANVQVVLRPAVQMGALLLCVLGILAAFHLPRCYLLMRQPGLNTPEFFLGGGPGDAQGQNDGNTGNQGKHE
Excerpt: (§1) The coding sequences for TAS1R2 and TAS1R3 were commercially synthesised, and the human codon was optimised for expression in human cells. The coding sequences of human TAS1R2 and TAS1R3 were subcloned and inserted into the mammalian expression vectors pcDNA6/myc-HisA and pcDNA4/myc-HisA (Invitrogen; Thermo Fisher Scientific; Illkirch, France) between the EcoRI and NotI restriction sites, generating the plasmids pcDNA6-TAS1R2 and pcDNA4-TAS1R3, respectively. To increase protein expression in mammalian cells, an upstream start codon was used, which was a sequence called MAX, corresponding to the QBI SP163 element also described in pcDNA4-HisMax (Invitrogen; Thermo Fisher Scientific; Illkirch, France). To measure the expression level of the receptor by immunohistochemistry, we used the FLAG sequence ([…]) in the C-terminal position, which encodes the FLAG tag epitope. SNP variants of TAS1R2 and TAS1R3 were constructed based on […], respectively, using site-directed mutagenesis (Genewiz; Leipzig, Germany).
(§2) The HEK293T cells were kindly provided by Jay P. Slack (Givaudan Flavors Corporation; Cincinnati, OH, USA). HEK293T cells stably transfected with Gα16gust44 [43, 67] were seeded in poly-D-lysine-coated clear-bottom black 96-well plates (0.35 × 10^5 cells/well) in high-glucose DMEM supplemented with 2 mM GlutaMAX, 10% dialysed foetal bovine serum with penicillin/streptomycin and G418 (400 μg/mL) at 37 °C and 6.3% CO2 in a humidified atmosphere as previously reported. […] As a negative control, HEK293T cells were mock-transfected with the empty expression vector. After a further 24 h of incubation, the HEK293T cells were washed with C1 buffer (130 mM NaCl, 5 mM KCl, 10 mM HEPES pH 7.4 and 2 mM CaCl2). The 96-well plates containing the cells were then stimulated with sweet-tasting compounds. […] Different concentration ranges were tested depending on the sweet compound injected. The Ca^2+ changes were expressed as fractional changes in fluorescent light intensity: ΔF/F = (F − F0)/F0, where F was the fluorescent light intensity at each point, and F0 was the value of emitted fluorescent light prior to stimulus application. To calculate dose–response relationships, the changes in fluorescence upon stimulus application were averaged, mock-subtracted and baseline-corrected. The dose–response data obtained were adjusted using a 4-parameter logistic equation. The half-maximal effective concentrations (EC50 values) and maximal signal amplitudes were calculated using SigmaPlot software (version 15.0) (Systat Software; San Jose, CA, USA).
(§3) For in vitro calcium mobilisation assay performed on hTAS1R2-SNPs, hTAS1R3-SNPs and mTAS1R3-I60T, 6 to 7 concentrations were tested for each sweet compound, plus buffer alone. All concentration–receptor combinations were measured in duplicate, and each experiment was repeated at least 4 times (8 wells/concentration). Results were expressed for each concentration as ΔF/F mean ± SEM and represented as dose–response curves.

[2] = biological target: T2, human TAS1R2-WT/TAS1R3-WT (Homo sapiens, UniProt Q7RTX0+Q8TE23); assay: Calcium mobilisation assay, HEK293T-Gα16gust44 cells, human sweet taste receptor WT; format: cell-based; conditions: for Max ΔF/F0: maximal signal amplitude; for EC50: read-out: EC50
T2 construct: expressed in transfected cells; host or cells: HEK293T-Gα16gust44
T2 sequence (Q8TE23 20-839): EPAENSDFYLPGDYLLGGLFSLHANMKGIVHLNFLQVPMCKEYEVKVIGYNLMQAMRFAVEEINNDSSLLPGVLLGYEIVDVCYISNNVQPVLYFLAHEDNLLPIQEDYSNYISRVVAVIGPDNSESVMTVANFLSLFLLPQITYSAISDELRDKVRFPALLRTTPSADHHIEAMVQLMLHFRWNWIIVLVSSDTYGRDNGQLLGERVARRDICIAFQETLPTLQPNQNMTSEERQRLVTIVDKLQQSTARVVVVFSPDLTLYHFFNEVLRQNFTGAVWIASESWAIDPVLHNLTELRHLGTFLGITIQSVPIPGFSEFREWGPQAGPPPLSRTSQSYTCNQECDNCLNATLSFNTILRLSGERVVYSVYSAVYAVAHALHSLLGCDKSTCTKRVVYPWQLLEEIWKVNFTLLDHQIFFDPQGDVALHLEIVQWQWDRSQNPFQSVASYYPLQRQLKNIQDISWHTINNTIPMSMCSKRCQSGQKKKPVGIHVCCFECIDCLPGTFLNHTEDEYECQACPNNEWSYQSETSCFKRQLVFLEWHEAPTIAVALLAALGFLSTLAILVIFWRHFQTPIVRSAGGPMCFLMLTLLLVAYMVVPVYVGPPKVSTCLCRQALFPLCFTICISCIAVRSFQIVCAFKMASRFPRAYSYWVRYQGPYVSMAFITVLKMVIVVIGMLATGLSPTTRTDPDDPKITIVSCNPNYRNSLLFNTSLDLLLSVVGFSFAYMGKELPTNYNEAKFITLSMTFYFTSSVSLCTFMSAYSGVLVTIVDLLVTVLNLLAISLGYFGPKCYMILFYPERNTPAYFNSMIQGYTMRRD
T2 sequence (Q7RTX0 21-852): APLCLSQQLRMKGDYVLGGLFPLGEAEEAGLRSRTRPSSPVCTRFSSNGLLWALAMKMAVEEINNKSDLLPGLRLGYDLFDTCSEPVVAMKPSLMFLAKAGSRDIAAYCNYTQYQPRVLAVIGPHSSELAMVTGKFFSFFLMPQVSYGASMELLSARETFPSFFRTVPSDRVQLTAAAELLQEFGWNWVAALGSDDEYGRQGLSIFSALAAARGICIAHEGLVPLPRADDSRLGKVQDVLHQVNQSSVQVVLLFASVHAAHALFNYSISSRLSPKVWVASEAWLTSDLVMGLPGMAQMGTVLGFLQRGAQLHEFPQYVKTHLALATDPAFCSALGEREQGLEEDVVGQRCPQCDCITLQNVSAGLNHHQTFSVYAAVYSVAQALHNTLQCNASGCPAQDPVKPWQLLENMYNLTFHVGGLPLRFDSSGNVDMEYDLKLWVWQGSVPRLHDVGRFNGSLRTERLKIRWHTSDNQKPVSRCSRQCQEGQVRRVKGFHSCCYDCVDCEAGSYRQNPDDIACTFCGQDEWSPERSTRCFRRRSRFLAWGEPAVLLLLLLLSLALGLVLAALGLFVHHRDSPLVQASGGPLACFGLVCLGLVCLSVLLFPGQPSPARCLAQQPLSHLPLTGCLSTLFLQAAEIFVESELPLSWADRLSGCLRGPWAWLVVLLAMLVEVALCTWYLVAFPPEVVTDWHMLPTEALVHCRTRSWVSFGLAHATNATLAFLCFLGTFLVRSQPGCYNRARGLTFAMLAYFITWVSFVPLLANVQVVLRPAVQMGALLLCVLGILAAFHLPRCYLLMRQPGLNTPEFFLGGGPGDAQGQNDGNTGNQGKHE
Excerpt: as §1, §2, §3

Structure (SMILES)	EC50 [1] [µM]	R1 = Variant EC50/WT EC50 [1]	Max ΔF/F0 [1]	R1 = Variant EC50/WT EC50 ([2]; TAS1R2-WT + TAS1R3-WT)	Max ΔF/F0 ([2]; TAS1R2-WT + TAS1R3-WT)	EC50 ([2]; TAS1R2-WT + TAS1R3-WT) [µM]	R1 = Variant EC50/WT EC50 ([2]; TAS1R2-WT/TAS1R3-WT)	Max ΔF/F0 ([2]; TAS1R2-WT/TAS1R3-WT)	EC50 ([2]; TAS1R2-WT/TAS1R3-WT) [µM]
CC1=CC(=O)NS(=O)(=O)O1 [Acesulfame K, acesulfame K]	466 ± 54	0.7	0.32 ± 0.01	1.0	0.31 ± 0.01	705 ± 7	1.0	0.28 ± 0.01	622 ± 45
O=S(=O)(O)NC1CCCCC1 [Cyclamate, cyclamate]	1810 ± 55					1890 ± 46			1590 ± 28
C[C@H](CC[C@@H](O[C@@H]1O[C@H](CO[C@@H]2O[C@H](CO)[C@@H](O)[C@H](O)[C@H]2O)[C@@H](O)[C@H](O)[C@H]1O[C@@H]1O[C@H](CO)[C@@H](O)[C@H](O)[C@H]1O)C(C)(C)O)[C@H]1CC[C@@]2(C)[C@@H]3CC=C4[C@@H](CC[C@H](O[C@@H]5O[C@H](CO[C@@H]6O[C@H](CO)[C@@H](O)[C@H](O)[C@H]6O)[C@@H](O)[C@H](O)[C@H]5O)C4(C)C)[C@]3(C)[C@H](O)C[C@]12C [Mogroside V, mogroside V]	18.6 ± 1.6	1.1	1.32 ± 0.04	1.0	1.28 ± 0.03	17.3 ± 1.2	1.0	0.93 ± 0.01	31.3 ± 0.8

The remaining lines, values ahead:

EC50 [1] [µM]	R1 = Variant EC50/WT EC50 [1]	Max ΔF/F0 [1]	R1 = Variant EC50/WT EC50 ([2]; TAS1R2-WT + TAS1R3-WT)	Max ΔF/F0 ([2]; TAS1R2-WT + TAS1R3-WT)	EC50 ([2]; TAS1R2-WT + TAS1R3-WT) [µM]	R1 = Variant EC50/WT EC50 ([2]; TAS1R2-WT/TAS1R3-WT)	Max ΔF/F0 ([2]; TAS1R2-WT/TAS1R3-WT)	EC50 ([2]; TAS1R2-WT/TAS1R3-WT) [µM]	Structure (SMILES)
99 ± 5.2	1.3	0.83 ± 0.02	1.0	0.71 ± 0.02	76.7 ± 4.4	1.0	1.13 ± 0.01	50.3 ± 11	COc1ccc(CCC(=O)c2c(O)cc(O[C@@H]3O[C@H](CO)[C@@H](O)[C@H](O)[C@H]3O[C@@H]3O[C@@H](C)[C@H](O)[C@@H](O)[C@H]3O)cc2O)cc1O [NHDC, neohesperidin dihydrochalcone]
0.85 ± 0.16	1.0	0.66 ± 0.04	1.0	0.56 ± 0.03	0.84 ± 0.13	1.0	0.65 ± 0.02	1.22 ± 0.11	COC(=O)[C@H](Cc1ccccc1)NC(=O)[C@H](CC(=O)O)NCCC(C)(C)C [Neotame]
